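1) Cells in 96-well plates. 2) Compound, 48 h, 5 concentrations. 3) Linear interpolation between surrounding doses. 4) Unreached endpoint = highest concentration. Here, GI50 denotes the concentration required for 50% inhibition of growth. TGI denotes the concentration required for complete inhibition of growth.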
Key:
Assay in all cases: NCI-60 cell line screen, 48 h
[1] = tested on: 786-0 renal
[2] = tested on: A549 NSCLC
[3] = tested on: COLO 205 colon
[4] = tested on: DU-145 prostate
[5] = tested on: HCT-116 colon
[6] = tested on: HCT-15 colon
[7] = tested on: NCI-H522 lung
[8] = tested on: SN12C renal
[9] = tested on: SW-620 colon
[10] = tested on: UO-31 renal

SMILES	GI50 [1] [µM]	TGI [1] [µM]	GI50 [2] [µM]	TGI [2] [µM]	GI50 [3] [µM]	TGI [3] [µM]	GI50 [4] [µM]	TGI [4] [µM]	GI50 [5] [µM]	TGI [5] [µM]	GI50 [6] [µM]	TGI [6] [µM]	GI50 [7] [µM]	TGI [7] [µM]	GI50 [8] [µM]	TGI [8] [µM]	GI50 [9] [µM]	TGI [9] [µM]	GI50 [10] [µM]	TGI [10] [µM]
O=C(/C=C/OC(=O)c1cccc(Cl)c1)c1ccc(Cl)cc1	> 91.7	> 100	> 100	> 100	> 65	> 100	44	> 100	31.3	> 100	50.7	> 100	> 93.3	> 100	28.5	> 100	29.4	> 82	> 100	> 100
O=C(O)Cc1cccc2c(=O)c3cccc([N+](=O)[O-])c3oc12		> 100		> 100		> 100		> 100		> 100		> 100		> 100		> 100		> 100		> 100
C[CH2][Sn]([CH2]C)([O]C(=O)c1ccc(OC)c(OC)c1OC)[O]C(=O)c1ccc(OC)c(OC)c1OC	58.6	> 100	> 100	> 100	65.1	> 100	> 100	> 100	> 100	> 100	61.2	> 100	2.42	8.54	99.8	> 100	36.5	69.1	> 65.7	> 96.4
C/C(=N/Nc1nc(C)cc(=O)[nH]1)C(=O)O		> 100		> 100		> 100		> 100		> 100		> 100		> 100		> 100		> 100		> 100
